# Non-standard residues stand in square brackets, D forms with d. Residues, ends and D or L forms follow the SMILES beside them.
# How the values were obtained:
# [1] = tested on: Pseudomonas aeruginosa (6 different isolates); settings: geometric mean of the MIC values from 6 different isolates of P. aeruginosa; Table 3B
# From the text: (§1) P. aeruginosa strains used are as follows: strain PAO1 was isolated from a human wound in 1955 in Australia; strain WR5 was isolated from a burn patient at Walter Reed Army Hospital, Washington, DC, USA, in 1976 and is a natural toxA^− mutant, but is virulent in experimental mouse models; strain PAK was originally isolated at Memorial University, St. John’s, Newfoundland, Canada, and is widely used in the analysis of pili; strain PA14 was originally isolated as a clinical isolate in 1995 at the Massachusetts General Hospital, Boston, MA, USA and is virulent in a variety of plant and animal models of infection; strain M2 was originally isolated in 1975 from the gastrointestinal tract of a healthy CF1 mouse, University of Cincinnati College of Medicine, and Shriners Burns Institute, Cincinnati, OH, USA and is virulent in a burn mouse model of P. aeruginosa infection; and strain CP204 was isolated from a cystic fibrosis patient in 1989 at the National Jewish Medical and Research Center, Denver, CO, USA. All strains have been maintained at −80 °C in the laboratory of Michael Vasil, University of Colorado, School of Medicine.
# (§2) The minimal inhibitory concentration (MIC) is defined as the lowest peptide concentration that inhibited bacterial growth. MICs were measured by a standard microtiter dilution method in Mueller Hinton (MH) medium. Briefly, cells were grown overnight at 37 °C in MH broth and were diluted in the same medium. […] The plates were incubated at 37 °C for 24 h, and the MICs were determined.
# Geometric mean of MIC values was calculated to provide an overall view of antimicrobial activity of different analogs.
# [2] = tested on: Acinetobacter baumannii (11 different isolates); type: cell-based; settings: geometric mean of the MIC values from 11 different isolates of A. baumannii; Table 3A
# From the text: (§3) All the A. baumannii strains used in this study were (1) obtained from the collection of Dr. Anthony A. Campagnari at the University of Buffalo and originally isolated from different patients and organs/tissues (strain 649, blood; strain 689, groin; strain 759, gluteus; strain 821, urine; strain 884, axilla; strain 899, perineum; strain 964, throat; strain 985, pleural fluid and strain 1012, sputum); (2) were purchased from the American Type Culture Collection (ATCC, Manassas, VA, USA) (strain ATCC 17978, fatal meningitis; and strain ATCC 19606, urine).
# (§4) The minimal inhibitory concentration (MIC) is defined as the lowest peptide concentration that inhibited bacterial growth. MICs were measured by a standard microtiter dilution method in Mueller Hinton (MH) medium. Briefly, cells were grown overnight at 37 °C in MH broth and were diluted in the same medium. Serial dilutions of the peptides were added to the microtiter plates in a volume of 50 µL, followed by the addition of 50 µL of bacteria to give a final inoculum of 5 × 10^5 colony-forming units (CFU)/mL. The plates were incubated at 37 °C for 24 h, and the MICs were determined.
# Antibacterial activities against six strains of P. aeruginosa and eleven strains of A. baumannii are compared in Table 3. Geometric mean of MIC values was calculated to provide an overall view of antimicrobial activity of different analogs. It is clear that our peptides were effective in killing the microorganisms tested. Compared to a dramatic reduction in hemolytic activity, antibacterial activity of D-piscidin 1 and D-dermaseptin S4 analogs against eleven strains of A. baumannii maintained the same level (within 2-fold) upon the substitution of “specificity determinant(s)” (Table 3).
# [3] = tested on: A. baumannii strain 884; experiment: MIC, microtiter dilution; type: cell-based, Acinetobacter baumannii; settings: source axilla; Mueller-Hinton medium, 37 °C, 24 h, 5 × 10^5 CFU/mL; three sets of determinations
# From the text: as §3, §4
# [4] = tested on: A. baumannii strain 821; experiment: MIC, microtiter dilution; type: cell-based, Acinetobacter baumannii; settings: source urine; Mueller-Hinton medium, 37 °C, 24 h, 5 × 10^5 CFU/mL; three sets of determinations
# From the text: as §3, §4
# [5] = tested on: A. baumannii strain 759; experiment: MIC, microtiter dilution; type: cell-based, Acinetobacter baumannii; settings: source gluteus; Mueller-Hinton medium, 37 °C, 24 h, 5 × 10^5 CFU/mL; three sets of determinations
# From the text: as §3, §4
# [6] = tested on: A. baumannii strain ATCC 19606; experiment: MIC, microtiter dilution; type: cell-based, Acinetobacter baumannii; settings: source urine; Mueller-Hinton medium, 37 °C, 24 h, 5 × 10^5 CFU/mL; three sets of determinations
# From the text: as §3, §4
# [7] = tested on: A. baumannii strain 649; experiment: MIC, microtiter dilution; type: cell-based, Acinetobacter baumannii; settings: source blood; Mueller-Hinton medium, 37 °C, 24 h, 5 × 10^5 CFU/mL; three sets of determinations
# From the text: as §3, §4
# [8] = tested on: A. baumannii strain 899; type: cell-based, Acinetobacter baumannii; settings: source perineum; Mueller-Hinton medium, 37 °C, 24 h, 5 × 10^5 CFU/mL; three sets of determinations
# From the text: as §3, §4
# [9] = tested on: A. baumannii strain ATCC 17978; type: cell-based, Acinetobacter baumannii; settings: ATCC 17978, 24 h
# From the text: as §3, §4
# [10] = tested on: A. baumannii strain 985; type: cell-based, Acinetobacter baumannii; settings: source pleural fluid; Mueller-Hinton medium, 37 °C, 24 h, 5 × 10^5 CFU/mL; three sets of determinations
# From the text: as §3, §4
# [11] = tested on: A. baumannii strain 964; type: cell-based, Acinetobacter baumannii; settings: source throat; Mueller-Hinton medium, 37 °C, 24 h, 5 × 10^5 CFU/mL; three sets of determinations
# From the text: as §3, §4
# [12] = tested on: A. baumannii strain 1012; type: cell-based, Acinetobacter baumannii; settings: source sputum; Mueller-Hinton medium, 37 °C, 24 h, 5 × 10^5 CFU/mL; three sets of determinations
# From the text: as §3, §4
# [13] = tested on: A. baumannii strain 689; type: cell-based, Acinetobacter baumannii; settings: source groin; Mueller-Hinton medium, 37 °C, 24 h, 5 × 10^5 CFU/mL; three sets of determinations
# From the text: as §3, §4
# [14] = tested on: P. aeruginosa strain PAO1; settings: source human wound; Mueller-Hinton medium, 37 °C, 24 h, 5 × 10^5 CFU/mL; three sets of determinations
# From the text: as §1, §2
# [15] = tested on: P. aeruginosa strain CP204; settings: source cystic fibrosis patient; Mueller-Hinton medium, 37 °C, 24 h, 5 × 10^5 CFU/mL; three sets of determinations
# From the text: as §1, §2
# [16] = tested on: P. aeruginosa strain PAK; settings: Mueller-Hinton medium, 37 °C, 24 h, 5 × 10^5 CFU/mL; three sets of determinations
# From the text: as §1, §2
# [17] = tested on: P. aeruginosa strain PA14; settings: Mueller-Hinton medium, 37 °C, 24 h, 5 × 10^5 CFU/mL; three sets of determinations
# From the text: as §1, §2
# [18] = tested on: P. aeruginosa strain M2; settings: source burn mouse model; Mueller-Hinton medium, 37 °C, 24 h, 5 × 10^5 CFU/mL; three sets of determinations
# From the text: as §1, §2
# [19] = tested on: P. aeruginosa strain WR5; settings: source burn patient; Mueller-Hinton medium, 37 °C, 24 h, 5 × 10^5 CFU/mL; three sets of determinations
# From the text: as §1, §2
# [20] = tested on: human erythrocytes; experiment: Hemolytic activity (HC50); type: cell-based; settings: for Hemolytic activity HC50: concentration giving 50% hemolysis after 18 h at 37 °C, 1% human erythrocytes in PBS pH 7.4, hemoglobin release at 570 nm, 100% control water (Figure 7)
# Protocol: Hemoglobin release was determined spectrophotometrically at 570 nm.
# From these plots, the HC50 values, the peptide concentration that produces 50% hemolysis of human red blood cells after 18 hours in the standard microtiter dilution method was determined.
Structure (SMILES),MIC GM [1] [µM],MIC GM [2] [µM],MIC 884 [3] [µM],MIC 821 [4] [µM],MIC 759 [5] [µM],MIC ATCC19606 [6] [µM],MIC 649 [7] [µM],MIC 899 [8] [µM],MIC ATCC17978 [9] [µM],MIC 985 [10] [µM],MIC 964 [11] [µM],MIC 1012 [12] [µM],MIC 689 [13] [µM],MIC PAO1 [14] [µM],MIC CP204 [15] [µM],MIC PAK [16] [µM],MIC PA14 [17] [µM],MIC M2 [18] [µM],MIC WR5 [19] [µM],Hemolytic activity HC50 [20] [µM],further results
CC[C@@H](C)[C@@H](NC(=O)CNC(=O)[C@@H](CCCNC(=N)N)NC(=O)[C@@H](Cc1ccccc1)NC(=O)[C@H](NC(=O)[C@@H](Cc1c[nH]cn1)NC(=O)[C@@H](Cc1c[nH]cn1)NC(=O)[C@@H](Cc1ccccc1)NC(=O)[C@H](N)Cc1ccccc1)[C@H](C)CC)C(=O)N[C@@H](C(=O)N[C@H](Cc1c[nH]cn1)C(=O)N[C@@H](C(=O)NCC(=O)N[C@H](CCCCN)C(=O)N[C@@H](C(=O)N[C@@H](C(=O)N[C@H](Cc1c[nH]cn1)C(=O)N[C@H](CCCNC(=N)N)C(=O)N[C@H](CC(C)C)C(=O)N[C@@H](C(=O)N[C@@H](C(=O)NCC(N)=O)[C@H](C)O)C(C)C)[C@H](C)CC)[C@H](C)O)C(C)C)C(C)C [D-Piscidin 1] (H-[dF][dF][dH][dH][dI][dF][dR]G[dI][dV][dH][dV]G[dK][dT][dI][dH][dR][dL][dV][dT]G-NH2),19.3,2.8,3.0,3.0,3.0,3.0,3.0,3.0,3.0,1.5,3.0,6.1,1.5,24.3,24.3,12.2,24.3,24.3,12.2,1.8,Hemolytic activity Fold improvement in HC50 [20]: 1.0 fold
CC[C@@H](C)[C@@H](NC(=O)CNC(=O)[C@@H](CCCNC(=N)N)NC(=O)[C@@H](Cc1ccccc1)NC(=O)[C@H](NC(=O)[C@@H](Cc1c[nH]cn1)NC(=O)[C@@H](Cc1c[nH]cn1)NC(=O)[C@@H](Cc1ccccc1)NC(=O)[C@H](N)Cc1ccccc1)[C@H](C)CC)C(=O)N[C@@H](C(=O)N[C@H](Cc1c[nH]cn1)C(=O)N[C@H](CCCCN)C(=O)NCC(=O)N[C@H](CCCCN)C(=O)N[C@@H](C(=O)N[C@@H](C(=O)N[C@H](Cc1c[nH]cn1)C(=O)N[C@H](CCCNC(=N)N)C(=O)N[C@H](CC(C)C)C(=O)N[C@@H](C(=O)N[C@@H](C(=O)NCC(N)=O)[C@H](C)O)C(C)C)[C@H](C)CC)[C@H](C)O)C(C)C [D-Piscidin 1 V12K] (H-[dF][dF][dH][dH][dI][dF][dR]G[dI][dV][dH][dK]G[dK][dT][dI][dH][dR][dL][dV][dT]G-NH2),17.0,2.8,3.0,3.0,3.0,3.0,3.0,3.0,3.0,1.5,3.0,3.0,3.0,24.0,24.0,6.0,24.0,24.0,12.0,35,

# Reference: paper PMC4014698 (Pharmaceuticals, 2014)
